From ChEMBL document CHEMBL1134944, “Design and synthesis of xanthine analogues as potent and selective PDE5 inhibitors” (Bioorg Med Chem Lett, 2002)
Activity calls are given as the source filed them. The calls are words filed in the database; no cut-off is given here.

How the values were obtained:
[1] = biological target: T1, cGMP-specific 3',5'-cyclic phosphodiesterase (Homo sapiens, UniProt O76074); assay: Percentage inhibition against human phosphodiesterase type 5 isolated from corpus cavernosum at 100 nM.
[2] = biological target: T1, cGMP-specific 3',5'-cyclic phosphodiesterase; assay: Concentration required to inhibit phosphodiesterase type 5 (PDE5) isolated from corpus cavernosum by 50% was determined
[3] = biological target: Phosphodiesterases; PDE5 & PDE6 (Homo sapiens) (UniProt O76074+Q13956+P18545+P35913+O43924+P16499+P51160); assay: Selectivity for PDE6 compared to PDE5.; format: protein assay
[4] = Relative inhibition of PDEs 1-4 and PDE5
[5] = species on record: Oryctolagus cuniculus; assay: 0.50 Hz electrical frequency stimulated (EFS) relaxation of rabbit corpus cavernosum at 25-30 nM; format: functional
[6] = species on record: Oryctolagus cuniculus; assay: 1.0 Hz electrical frequency stimulated (EFS) relaxation of rabbit corpus cavernosum at 25-30 nM; format: functional
[7] = species on record: Oryctolagus cuniculus; assay: 16.0 Hz electrical frequency stimulated (EFS) relaxation of rabbit corpus cavernosum at 25-30 nM; format: functional
[8] = species on record: Oryctolagus cuniculus; assay: 2.0 Hz electrical frequency stimulated (EFS) relaxation of rabbit corpus cavernosum at 25-30 nM; format: functional
[9] = species on record: Oryctolagus cuniculus; assay: 4.0 Hz electrical frequency stimulated (EFS) relaxation of rabbit corpus cavernosum at 25-30 nM; format: functional
[10] = species on record: Oryctolagus cuniculus; assay: 8.0 Hz electrical frequency stimulated (EFS) relaxation of rabbit corpus cavernosum at 25-30 nM; format: functional

Compound | inhibition [1] [%] | IC50 [2] [nM] | Ratio [3] | other results
CC(C)[C@@H](CO)Nc1nc2c(c(=O)n(C)c(=O)n2C)n1Cc1ccccc1 | 2 | – | – | –
CCn1c(=O)c2c(nc(NC3CCCC3)n2Cc2ccc(O)cc2)n(CC)c1=O | – | 1.5 | 46 | –
Cn1c(=O)c2c(nc(N[C@H](CO)Cc3ccccc3)n2Cc2ccccc2)n(C)c1=O | 0 | – | – | –
Cn1c(=O)c2c(nc(N[C@@H](CO)Cc3ccccc3)n2Cc2ccccc2)n(C)c1=O | 4 | – | – | –
CC(C)[C@H](CO)Nc1nc2c(c(=O)n(C)c(=O)n2C)n1Cc1ccccc1 | 11 | – | – | –
CCn1c(=O)c2c(nc(NC3CCCCC3)n2Cc2ccc(OC)c(C)c2)n(CC)c1=O | – | 19 | 58 | –
CCn1c(=O)c2c(nc(NC3CCCCC3)n2Cc2ccc(OC)c(F)c2)n(CC)c1=O | – | 0.3 | 350 | Ratio [4]: > 28000
CCn1c(=O)c2c(nc(NC3CCCCC3)n2Cc2cccc(OC)c2)n(CC)c1=O | – | 100 | inactive | –
CCn1c(=O)c2c(nc(NC3CCCCC3)n2Cc2ccc(OC)cc2)n(CC)c1=O | – | 2.6 | 51 | –
Cn1c(=O)c2c(nc(N[C@H](CO)c3ccccc3)n2Cc2ccccc2)n(C)c1=O | 5 | – | – | –
CCn1c(=O)c2c(nc(NC3CCCCC3)n2Cc2ccc(OC)c(Br)c2)n(CC)c1=O | – | 1.7 | 219 | Ratio [4]: > 10000
CCn1c(=O)c2c(nc(NC3CCCCC3)n2Cc2ccc(O)c(Cl)c2)n(CC)c1=O | – | 2 | 250 | –
CCn1c(=O)c2c(nc(NC3CCCC3)n2Cc2ccc(OC)c(Cl)c2)n(CC)c1=O | – | 1.1 | 118 | –
Cn1c(=O)c2c(nc(NC3CCCC3)n2Cc2ccccc2)n(C)c1=O | 62 | – | – | –
CCn1c(=O)c2c(nc(NC3CCCCC3)n2Cc2ccc(O)c(C)c2)n(CC)c1=O | – | 4.5 | 133 | –
CCn1c(=O)c2c(nc(NC3CCCC3)n2Cc2ccc(O)c(Cl)c2)n(CC)c1=O | – | 1.8 | 261 | –
CCn1c(=O)c2c(nc(NC3CCCCC3)n2Cc2cccc(O)c2)n(CC)c1=O | – | 1.2 | 36 | –

Compound | inhibition [1] [%] | IC50 [2] [nM] | Ratio [3] | other results
Cn1c(=O)c2c(nc(N[C@@H](CO)c3ccccc3)n2Cc2ccccc2)n(C)c1=O | 0 | – | – | –
CC(C)Cn1c(=O)n(C)c(=O)c2c1nc(NC1CCCCC1)n2Cc1ccccc1 | 52 | – | – | –
CCn1c(=O)c2c(nc(NC3CCCCC3)n2Cc2ccc(OC)c(Cl)c2)n(CC)c1=O | – | 0.58 | 345 | Ratio [4]: > 9500
CCn1c(=O)c2c(nc(NC3CCCC3)n2Cc2ccc(OC)cc2)n(CC)c1=O | – | 2.1 | 33 | –
CCn1c(=O)c2c(nc(NC3CCCC3)n2Cc2ccc(O)c(F)c2)n(CC)c1=O | – | 0.82 | 182 | Ratio [4]: > 4400
Cn1c(=O)c2c(nc(NCC3(O)CCCCC3)n2Cc2ccccc2)n(C)c1=O | 10 | – | – | –
CCn1c(=O)c2c(nc(NC3CCCC3)n2Cc2ccccc2)n(CC(C)C)c1=O | 56 | – | – | –
CCn1c(=O)c2c(nc(NC3CCCCC3)n2Cc2ccccc2)n(CC(C)C)c1=O | 63 | – | – | –
CC(C)Cn1c(=O)n(C)c(=O)c2c1nc(NC1CCCC1)n2Cc1ccccc1 | 49 | – | – | –
CCn1c(=O)c2c(nc(NC3CCCCC3)n2Cc2ccc(O)cc2)n(CC)c1=O | – | 0.6 | 101 | Relaxation [5]: 25%; Relaxation [6]: 50%; Relaxation [7]: 75%; Relaxation [8]: 75%; Relaxation [9]: 75%; Relaxation [10]: 75%; Ratio [4]: > 3000
CCn1c(=O)c2c(nc(NC3CCCCC3)n2Cc2ccc(O)c(F)c2)n(CC)c1=O | – | 0.33 | 364 | Ratio [4]: > 12000
Cn1c(=O)c2c(nc(NC3CCCCC3)n2Cc2ccccc2)n(C)c1=O | 54 | – | – | –
CCn1c(=O)c2c(nc(NC3CCCCC3)n2Cc2ccccc2)n(CC)c1=O | 93 | 12 | 35 | –
Cn1c(=O)c2c(nc(N[C@@H]3CCC[C@H]3O)n2Cc2ccccc2)n(C)c1=O | 17 | – | – | –
CCn1c(=O)c2c(nc(NC3CCCC3)n2Cc2ccc(OC)c(F)c2)n(CC)c1=O | – | 0.69 | 89 | –
CCn1c(=O)c2c(nc(NC3CCCC3)n2Cc2ccccc2)n(CC)c1=O | 91 | – | 21 | –
CCn1c(=O)c2c(nc(NC3CCCCC3)n2Cc2ccc3c(c2)OCO3)n(CC)c1=O | – | 3.7 | 14 | –
